{
  "source": "paper PMC9324262",
  "about": "“Selective CDK9 Inhibition by Natural Compound Toyocamycin in Cancer Cells” (Cancers, 2022)",
  "test_system": "YB5 cells",
  "test": "RNA sequencing, differential gene expression",
  "assay_type": "cell-based, human",
  "protocol": "Sequenced reads were aligned to the GRCh38.100 reference genome using STAR version 2.7.5a and gene-level counts were generated by setting the “quantMode GeneCounts” flag. Differential expression analysis was performed using EdgeR version 3.32.1.. The “filterByExpr” function in EdgeR was then used to determine genes with sufficiently large counts to be included in downstream differential expression testing. The filtered count matrix was then normalized using TMM normalization and differential expression testing was performed using the “glmTreat” function with the minimal required fold-change threshold set to “log2(1)” for significant differential gene expression (FDR < 0.1).",
  "data": [
    {"smiles": "N#Cc1cn([C@@H]2O[C@H](CO)[C@@H](O)[C@H]2O)c2ncnc(N)c12", "note": "[toyocamycin, 7-Deaza-7-cyanoadenosine]", "values": [
      {"measurement": "gene downregulation", "setting": "250 nM, 2 h", "value": 3.5, "unit": "%"},
      {"measurement": "number of genes downregulated", "setting": "250 nM, 2 h", "value": 513, "unit": "genes"},
      {"measurement": "number of genes upregulated", "setting": "250 nM, 2 h", "value": 24, "unit": "genes"},
      {"measurement": "number of genes downregulated", "setting": "250 nM, 10 h", "value": 2299, "unit": "genes"},
      {"measurement": "number of genes upregulated", "setting": "250 nM, 10 h", "value": 1999, "unit": "genes"},
      {"measurement": "level of differentially expressed genes", "setting": "250 nM, 10 h to 96 h", "value": "up to 60%"},
      {"measurement": "number of genes downregulated", "setting": "250 nM, 24 h", "value": 3651, "unit": "genes"},
      {"measurement": "number of genes upregulated", "setting": "250 nM, 24 h", "value": 3387, "unit": "genes"},
      {"measurement": "number of genes downregulated", "setting": "250 nM, 48 h", "value": 4377, "unit": "genes"},
      {"measurement": "number of genes upregulated", "setting": "250 nM, 48 h", "value": 4449, "unit": "genes"},
      {"measurement": "number of genes downregulated", "setting": "250 nM, 96 h", "value": 5061, "unit": "genes"},
      {"measurement": "number of genes upregulated", "setting": "250 nM, 96 h", "value": 5050, "unit": "genes"},
      {"measurement": "endogenous retrovirus (ERV) expression", "setting": "24 h treatment", "value": "induced significant ERV expression"}
    ]}
  ]
}
